Assay results taken from ChEMBL document CHEMBL3046479, “Preparation and antimicrobial activity evaluation of some new bi- and triheterocyclic azoles” (2013).
Converted amounts (≈) assume the structure as drawn. The source made the active and inactive calls. The calls are words filed in the database; no cut-off is given here.

Experiments:
Format in all cases: functional
[1] = test system: Yersinia pseudotuberculosis; test: Antimicrobial activity against Yersinia pseudotuberculosis ATCC 911 assessed as growth inhibition after 18-24 hr by broth double microdilution method
[2] = test system: Bacillus cereus; test: Antimicrobial activity against Bacillus cereus 709 Roma assessed as growth inhibition after 18-24 hr by broth double microdilution method
[3] = test system: Escherichia coli; test: Antimicrobial activity against Escherichia coli ATCC 35218 assessed as growth inhibition after 18-24 hr by broth double microdilution method
[4] = test system: Saccharomyces cerevisiae; test: Antimicrobial activity against Saccharomyces cerevisiae RSKK 251 assessed as growth inhibition after 18-24 hr by broth double microdilution method
[5] = test system: Listeria monocytogenes; test: Antimicrobial activity against Listeria monocytogenes ATCC 43251 assessed as growth inhibition after 18-24 hr by broth double microdilution method
[6] = test system: Pseudomonas aeruginosa; test: Antimicrobial activity against Pseudomonas aeruginosa ATCC 10145 assessed as growth inhibition after 18-24 hr by broth double microdilution method
[7] = test system: Enterococcus faecalis; test: Antimicrobial activity against Enterococcus faecalis ATCC 29212 assessed as growth inhibition after 18-24 hr by broth double microdilution method
[8] = test system: Candida albicans; test: Antimicrobial activity against Candida albicans ATCC 60193 assessed as growth inhibition after 18-24 hr by broth double microdilution method
[9] = test system: Staphylococcus aureus; test: Antimicrobial activity against Staphylococcus aureus ATCC 25923 assessed as growth inhibition after 18-24 hr by broth double microdilution method
[10] = test system: Mycolicibacterium smegmatis; test: Antimicrobial activity against Mycobacterium smegmatis ATCC 607 assessed as growth inhibition after 48-72 hr by broth double microdilution method

Structure (SMILES)	MIC [1]	MIC [2]	MIC [3]	MIC [4]	MIC [5]	MIC [6]	MIC [7]	MIC [8]	MIC [9]	MIC [10]
Cc1nn(-c2ccc(N)cc2F)c(=O)[nH]1	inactive	inactive	inactive	500 µg/mL (≈ 2400 µM)	inactive	inactive	inactive	125 µg/mL (≈ 600 µM)	inactive	31.3 µg/mL (≈ 150 µM)
Cc1nn(CC(=O)NNC(=S)Nc2ccccc2)c(=O)n1/N=C/c1ccncc1	inactive	inactive	inactive	inactive	inactive	inactive	inactive	inactive	inactive	inactive
Cc1nn(CNC2C(=O)N3C2SC(C)(C)C3C(=O)O)c(=O)n1CCCn1ccnc1 (stereo not drawn)	125 µg/mL (≈ 287 µM)	125 µg/mL (≈ 287 µM)	inactive	inactive	inactive	125 µg/mL (≈ 287 µM)	inactive	inactive	62.5 µg/mL (≈ 144 µM)	31.3 µg/mL (≈ 71.9 µM)
CCOC(=O)Cn1nc(C)n(CCCn2ccnc2)c1=O		inactive	inactive	inactive	inactive	inactive	inactive	250 µg/mL (≈ 852 µM)	inactive	inactive
Cc1nn(CN2CCOCC2)c(=O)n1CCCn1ccnc1	0.48 µg/mL (≈ 1.57 µM)	0.24 µg/mL (≈ 0.783 µM)	0.97 µg/mL (≈ 3.17 µM)	7.81 µg/mL (≈ 25.5 µM)	0.24 µg/mL (≈ 0.783 µM)	0.48 µg/mL (≈ 1.57 µM)	0.97 µg/mL (≈ 3.17 µM)	31.2 µg/mL (≈ 102 µM)	0.48 µg/mL (≈ 1.57 µM)	15.6 µg/mL (≈ 50.9 µM)
Cc1nn(CNCCN2CCNCC2)c(=O)n1CCCn1ccnc1	62.5 µg/mL (≈ 179 µM)	inactive	1.2 µg/mL (≈ 3.44 µM)		inactive	inactive	inactive	125 µg/mL (≈ 359 µM)	125 µg/mL (≈ 359 µM)	500 µg/mL (≈ 1430 µM)
Cc1nn(CC(=O)N/N=c2\sc(-c3ccc(Cl)cc3)cn2-c2ccccc2)c(=O)n1/N=C/c1ccncc1	inactive	125 µg/mL (≈ 229 µM)	inactive	250 µg/mL (≈ 459 µM)	inactive	inactive	inactive	125 µg/mL (≈ 229 µM)	125 µg/mL (≈ 229 µM)	inactive
Cc1nn(CN2CCN(c3ccccc3)CC2)c(=O)n1CCCn1ccnc1	0.7 µg/mL (≈ 1.83 µM)	1.2 µg/mL (≈ 3.15 µM)	inactive	125 µg/mL (≈ 328 µM)	inactive	31.3 µg/mL (≈ 82 µM)	inactive	inactive	62.5 µg/mL (≈ 164 µM)	inactive
Cc1n[nH]c(=O)n1/N=C/c1ccncc1	inactive	inactive	inactive	500 µg/mL (≈ 2460 µM)	inactive	inactive	inactive	125 µg/mL (≈ 615 µM)	inactive	125 µg/mL (≈ 615 µM)
Cc1nn(CN2CCCCC2)c(=O)n1CCCn1ccnc1	< 0.12 µg/mL	< 0.12 µg/mL	< 0.12 µg/mL	3.9 µg/mL (≈ 12.8 µM)	< 0.12 µg/mL	< 0.12 µg/mL	< 0.12 µg/mL	15.6 µg/mL (≈ 51.2 µM)	< 0.12 µg/mL	3.9 µg/mL (≈ 12.8 µM)
Cc1nn(CC(=O)NNC(=S)Nc2ccccc2)c(=O)n1CCCn1ccnc1	inactive	inactive	inactive	62.5 µg/mL (≈ 151 µM)	inactive	inactive	inactive	250 µg/mL (≈ 603 µM)	inactive	31.3 µg/mL (≈ 75.5 µM)
Cc1nn(-c2ccc(/N=C/c3ccc(Br)cc3)cc2F)c(=O)n1CCCn1ccnc1	inactive	inactive	inactive	inactive	inactive	inactive	inactive	inactive	inactive	0.24 µg/mL (≈ 0.497 µM)
COc1ccc(/C=N/NC(=O)Cn2nc(C)n(/N=C/c3ccncc3)c2=O)cc1	inactive	inactive	inactive	inactive	inactive	inactive	inactive	250 µg/mL (≈ 635 µM)	inactive	inactive
OC(Cn1cncn1)(Cn1cncn1)c1ccc(F)cc1F [FLUCONAZOLE]				< 8 µg/mL				< 8 µg/mL		
Cc1nn(Cc2nnc(S)n2-c2ccccc2)c(=O)n1/N=C/c1ccncc1	inactive	inactive	inactive	inactive	inactive	inactive	inactive	250 µg/mL (≈ 637 µM)	inactive	inactive
Cc1nn(Cc2nnc(S)n2-c2ccccc2)c(=O)n1CCCn1ccnc1	inactive	inactive	inactive	500 µg/mL (≈ 1260 µM)	inactive	inactive	inactive	500 µg/mL (≈ 1260 µM)	inactive	125 µg/mL (≈ 315 µM)
Cc1nn(CC(=O)N/N=c2\sc(-c3ccc(Cl)cc3)cn2-c2ccccc2)c(=O)n1CCCn1ccnc1	inactive		inactive	1000 µg/mL (≈ 1820 µM)	inactive	inactive	inactive	250 µg/mL (≈ 455 µM)	inactive	39.9 µg/mL (≈ 72.7 µM)
Cc1n[nH]c(=O)n1CCCn1ccnc1	inactive		inactive	1000 µg/mL (≈ 4830 µM)	inactive	inactive	inactive	500 µg/mL (≈ 2410 µM)	inactive	125 µg/mL (≈ 603 µM)
CN[C@@H]1[C@H](O[C@H]2[C@H](O[C@H]3[C@H](O)[C@@H](O)[C@H](N=C(N)N)[C@@H](O)[C@@H]3N=C(N)N)O[C@@H](C)[C@]2(O)C=O)O[C@@H](CO)[C@H](O)[C@H]1O [STREPTOMYCIN]										4 µg/mL (≈ 6.88 µM)
Cc1nn(-c2ccc(NC(=S)NCc3ccccc3)cc2F)c(=O)n1CCCn1ccnc1	inactive		inactive	500 µg/mL (≈ 1070 µM)	inactive	inactive	inactive	500 µg/mL (≈ 1070 µM)	inactive	250 µg/mL (≈ 537 µM)
Cc1nn(-c2ccc(/N=C/c3c(Cl)cccc3Cl)cc2F)c(=O)n1CCCn1ccnc1	inactive	inactive		inactive	inactive	inactive	inactive	250 µg/mL (≈ 528 µM)	inactive	3.9 µg/mL (≈ 8.24 µM)
CC1(C)S[C@@H]2[C@H](NC(=O)[C@H](N)c3ccccc3)C(=O)N2[C@H]1C(=O)O [AMPICILLIN]	32 µg/mL (≈ 91.6 µM)	< 1 µg/mL			8 µg/mL (≈ 22.9 µM)	> 128 µg/mL	2 µg/mL (≈ 5.72 µM)		2 µg/mL (≈ 5.72 µM)	
